The values that follow come from PubChem BioAssay (NCI).

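All cell lines were grown in 96-well plates and treated with compound for 48 hours. At the TGI there is no net growth.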

What all share (experiment): inhibition of tumour cell growth, NCI panel, 48 h
The test system of assay [1] is RPMI-8226 leukemia.
The subject of assay [2] is ACHN renal.
Assay [3] deals with MDA-N.
For assay [4], the system named is U251 CNS.
The subject of assay [5] is HOP-62 NSCLC.
Assay [6] relates to K-562 leukemia.
In assay [7] the test system is UO-31 renal.
The subject of assay [8] is SK-MEL-2 melanoma.
In assay [9] the test system is SNB-19 CNS.
Assay [10] deals with M14 melanoma.

Turning to `O/N=C1/CCCCC1NO` (stereo not given), the TGI in assay [1], in [2], in [3], in assay [4], in assay [5] and in assay [6] was more than 100 µM each time. Also, the TGI in assay [7], in [8], in [9] and in [10] was more than 100 µM each time.

Regarding `C[N+](C)(C)c1nc(N)nc2c1ncn2C1OC(CO)C(O)C1O` (stereo not given), the TGI in assay [1], in assay [2], in assay [3], in [4], in [5] and in assay [6] was more than 100 µM throughout. For the same compound, the TGI in [7], in assay [8], in assay [9] and in assay [10] was more than 100 µM each time.

As for `O=c1[nH]nc(Cc2ccc([N+](=O)[O-])cc2)[nH]1`, the TGI in assay [1], in assay [2], in assay [3], in assay [4], in assay [5] and in [6] was more than 100 µM throughout. For the same compound, the TGI in [7], in [8], in assay [9] and in [10] was more than 100 µM each time.

For `Cc1ccc2c3ccc4c(c3n(C)c2c1)C(=O)C=CC4=O`, the TGI in assay [1] is 5.67 µM; in [2], more than 10 µM; in assay [3], more than 10 µM; in [4] it was more than 10 µM; in [5], more than 10 µM; in assay [6], 3.75 µM. Further, the TGI in assay [7], in [8], in assay [9] and in assay [10] was more than 10 µM in each case.

With `Cc1cccc(/C=N/NC(=S)NC(C)(C)C)n1`, the TGI in [1], in [2], in assay [3], in [4], in assay [5] and in assay [6] was more than 100 µM throughout. For the same compound, the TGI in assay [7], in assay [8], in [9] and in assay [10] was more than 100 µM each time.

In the case of `Cn1cnc([N+](=O)[O-])c1Sc1nncc2[nH]cnc12`, the TGI in assay [1], in assay [2], in assay [3], in assay [4], in assay [5] and in [6] was more than 100 µM throughout. Besides, the TGI in assay [7], in assay [8], in [9] and in [10] was more than 100 µM each time.

Regarding `C=C(Cl)C(=C)CCC(Cl)C(C)(C)Cl` (stereo not given), the TGI in [1], in assay [2], in [3], in assay [4], in assay [5] and in [6] was more than 100 µM each time. Moreover, the TGI in assay [7], in assay [8], in assay [9] and in assay [10] was more than 100 µM throughout.

For the compound `CNc1ccc([N+](=O)[O-])cc1C(=O)N1CCC[C@H]1CO`, the TGI in assay [1], in assay [2], in assay [3], in assay [4], in assay [5] and in assay [6] was more than 100 µM throughout. The TGI in assay [7], in [8], in assay [9] and in assay [10] was more than 100 µM in each case.

Regarding `CN(C)CCCN1C(=O)N(CCCN(C)C)c2c3cc(O)ccc3nc3c([N+](=O)[O-])ccc1c23`, the TGI was 63.3 µM in [1]; 62.6 µM in assay [2]; more than 100 µM in assay [3]; 30.2 µM in assay [4]; 52.7 µM in [5]; 23.7 µM in assay [6]. The TGI in assay [7] came to 63.6 µM; in [8], 29.8 µM; in assay [9] it was 23.8 µM; in assay [10] it was 79.1 µM.

Regarding `CCOC(=O)c1c(C)n(CCN2CCN(C)CC2)c2ccc(OC)cc12`, the TGI was 49.6 µM in [1]; more than 100 µM in assay [2]; 39.4 µM in assay [3]; more than 100 µM in assay [4]; more than 100 µM in assay [5]; 45.8 µM in assay [6]. Also, the TGI was more than 100 µM in assay [7], 35.3 µM in assay [8], more than 100 µM in [9] and 30.8 µM in [10].

On to `NC(=O)Nc1n[nH]c(-c2ccccc2)n1`, for which the TGI in assay [1], in assay [2], in assay [3], in assay [4], in assay [5] and in [6] was more than 100 µM throughout. Also, the TGI in [7], in [8], in assay [9] and in [10] was more than 100 µM throughout.

Take `COc1cc(/C=C2\N=C(c3ccccc3)N(c3ccc(C(=O)c4ccccc4)cc3N3C(=O)/C(=C/c4cc(OC)c(OC)c(OC)c4)N=C3c3ccccc3)C2=O)cc(OC)c1OC`: the TGI is more than 100 µM in assay [1]; 66 µM in assay [2]; 14.9 µM in assay [3]; more than 100 µM in assay [4]; more than 100 µM in [5]; 68.7 µM in assay [6]. In addition, the TGI was 40.3 µM in [7], 25.1 µM in assay [8], more than 100 µM in assay [9] and 33.4 µM in assay [10].

Regarding `OCC(CO)CC1COc2ccccc2O1` (stereo not given), the TGI in [1], in assay [2], in [3], in assay [4], in assay [5] and in assay [6] was more than 10 µM each time. Moreover, the TGI in assay [7], in [8], in [9] and in assay [10] was more than 10 µM throughout.
